Measured values: patent US10914726B2, “Method for evaluating protrusion-forming ability of cell spheroids” (priority 2017, dated 2021)

Tests used:
MDA-MB231 cells [1] = experiment: Live/dead determination of gel-embedded cell spheroids treated with anticancer agents; type: cell-based, human; conditions: 48 hours, Batimastat 4 μM, Staurosporine 1 μM; for number of dead cells (share of cells) / Number of Dead cells / Number of Living cells: MDA-MB231 spheroid in Matrigel; for Number of Dead cells: green fluorescence cell nuclei counted; for Number of Living cells: red fluorescence cell nuclei counted
Protocol: (§1) The protrusion-forming ability of the cell spheroids of the cancer cells treated with various anticancer agents was examined. As the cancer cells, MDA-MB231 cells of a cultured cell strain established from a human breast cancer cells were used. MDA-MB 231 cells were cultured under a condition with a temperature of 37° C. and a CO2 concentration of 5 vol % in a culture medium of DMEM containing 10% FBS.
(§2) Two thousand MDA-MB 231 cells and 5 μL of 10×Spheroid Formation ECM (manufactured by Trevigen, Inc.) were mixed in a culture medium to prepare a cancer cell solution of which the final amount was adjusted to 50 μL using DMEM (phenol red free), and then 50 μL of the cancer cell solution was injected into one well of the U bottom plate for forming a cell spheroid “Prime Surface (registered trade mark) U plate” (manufactured by Sumitomo Bakelite Co., LTD.), followed by culturing the cells for 72 hours to form cell spheroids.
The culture medium was removed from the U bottom plate as much as possible by suction while paying attention not to suck the spheroids, followed by carefully adding 100 μL of Matrigel (manufactured by Corning Incorporated) to the well. The U bottom plate was allowed to stand in an incubator at 37° C. for 1 hour, and the gel was cured to construct a cell spheroid embedded in a gel.
100 μL of culture mediums containing L-Sulforaphane (final concentration: 10 μM), Batimastat (final concentration: 4 μM), Mitomycin C (final concentration: 10 μM), Paclitaxel (final concentration: 4 μM), or Staurosporine (final concentration: 1 μM) was added on the gel in which the cell spheroids were embedded, and then 0.1 μL ( 1/1000 of the culture medium amount) of “Nuclear ID green/red cell viability reagent” (manufactured by Enzo Life Science, Inc.) was further added thereto, followed by culturing them for 48 hours to infiltrate. By adding the live/dead determination reagent, the living cells were stained with red fluorescence and the dead cells were stained with green fluorescence. As a control, a cultivation in which a culture medium containing only the live/dead determination reagent was used was carried out in the same manner as the above-described cultivation except that the anticancer agents were not added.
The fluorescently labeled samples prepared in the above-described sections <Anticancer Agent Treatment and Treatment for Live/dead Determination> and <Anticancer Agent Treatment and Actin Staining> were imaged with a confocal laser microscope “FV 1200” (manufactured by Olympus Corporation). A 20-fold objective lens ([…]×20) was used to image, and the Z-slice interval was 2 μm. The total number of Z-slices was 60 to 100.
The series of plane tomographic image groups obtained by imaging the respective fluorescently labeled samples were superimposed to construct a stereoscopic image. The obtained stereoscopic image was binarized to obtain a binarized image.
For the binarized images obtained from the fluorescently labeled samples treated with the live/dead determination reagent, the number of cell nuclei of red fluorescence and green fluorescent were measured.

MDA-MB231 cells [2] = experiment: Evaluation of protrusion-forming ability of cell spheroids from stereoscopic image (central sphere volume ratio); type: cell-based, human; conditions: 48 hours, L-Sulforaphane 10 μM, Batimastat 4 μM, Mitomycin C 10 μM, Paclitaxel 4 μM, Staurosporine 1 μM
Protocol: as §1, §2
The culture medium was removed from the U bottom plate as much as possible by suction while paying attention not to suck the spheroids, followed by carefully adding 100 μL of Matrigel (manufactured by Corning Incorporated) to the well. The U bottom plate was allowed to stand in an incubator at 37° C. for 1 hour, and the gel was cured to construct a cell spheroid embedded in a gel. […]

SMILES	number of dead cells (share of cells) (MDA-MB231 cells [1])	Number of Dead cells (MDA-MB231 cells [1])	Number of Living cells (MDA-MB231 cells [1])	central sphere volume ratio ([volume of non-protrusion part]/[total volume of cell spheroid]) from stereoscopic image (MDA-MB231 cells [2]; FIG. 3, actin staining)	protrusion formation / protrusion-forming ability (MDA-MB231 cells [2]; stereoscopic image)	induction of cell death (MDA-MB231 cells [1]; MDA-MB231 spheroid)
CNC(=O)[C@H](Cc1ccccc1)NC(=O)[C@H](CC(C)C)[C@H](CSc1cccs1)C(=O)NO [Batimastat]	about 24%	562	1738	–	–	–
CO[C@@]12[C@H](COC(N)=O)C3=C(C(=O)C(C)=C(N)C3=O)N1C[C@@H]1N[C@@H]12 [Mitomycin C]	–	–	–	higher central sphere volume ratio as compared with the remaining three anticancer agent-treated samples	suppressed more strongly	–
CN[C@@H]1C[C@H]2O[C@@](C)([C@@H]1OC)n1c3ccccc3c3c4c(c5c6ccccc6n2c5c31)C(=O)NC4 [Staurosporine]	about 70%	1631 ± 414	576 ± 67	–	–	cell death was induced
